# Source: patent publication US20240308996A1, “PYRIDOPYRIDINES AND DERIVATIVES THEREOF AS SELECTIVE KINASE INHIBITORS” (University of Sharjah, priority 2023, published 2024)
# pIC50: −log10 of the molar value.
# Columns and labels:
# Assay type in all cases: cell-based
# ACHN = test: NCI-60 cell line panel: ACHN; details: Renal Cancer
# Description: (§1) It was carried out at the NCI, Bethesda, MD, USA, utilizing their standard protocol.
# NCI-H322M = test: NCI-60 cell line panel: NCI-H322M; details: Non-Small Cell Lung Cancer
# Description: as §1
# SK-MEL-2 = test: NCI-60 cell line panel: SK-MEL-2; parameters: TGI: unit not given here; details: Melanoma
# Description: as §1
# BT-549 = test: NCI-60 cell line panel: BT-549; details: Breast Cancer
# Description: as §1
# PC-3 = test: NCI-60 cell line panel: PC-3; details: Prostate Cancer
# Description: as §1
# MDA-MB-468 = test: NCI-60 cell line panel: MDA-MB-468; details: Breast Cancer
# Description: as §1
# UACC-62 = test: NCI-60 cell line panel: UACC-62; details: Melanoma
# Description: as §1
# SR = test: NCI-60 cell line panel: SR; details: Leukemia
# Description: as §1
# MOLT-4 = test: NCI-60 cell line panel: MOLT-4; parameters: TGI: unit not given here; details: Leukemia
# Description: as §1
# COLO 205 = test: NCI-60 cell line panel: COLO 205; parameters: TGI: unit not given here; details: Colon Cancer
# Description: as §1
# OVCAR-8 = test: NCI-60 cell line panel: OVCAR-8; details: Ovarian Cancer
# Description: as §1
# OVCAR-4 = test: NCI-60 cell line panel: OVCAR-4; details: Ovarian Cancer
# Description: as §1
# A498 = test: NCI-60 cell line panel: A498; details: Renal Cancer
# Description: as §1
# HL-60(TB) = test: NCI-60 cell line panel: HL-60(TB); parameters: TGI: unit not given here; details: Leukemia
# Description: as §1
# NCI-H460 = test: NCI-60 cell line panel: NCI-H460; details: Non-Small Cell Lung Cancer
# Description: as §1
# EKVX = test: NCI-60 cell line panel: EKVX; details: Non-Small Cell Lung Cancer
# Description: as §1
# SK-OV-3 = test: NCI-60 cell line panel: SK-OV-3; details: Ovarian Cancer
# Description: as §1
# TK-10 = test: NCI-60 cell line panel: TK-10; details: Renal Cancer
# Description: as §1
# UO-31 = test: NCI-60 cell line panel: UO-31; parameters: TGI: unit not given here; details: Renal Cancer
# Description: as §1
# KM12 = test: NCI-60 cell line panel: KM12; details: Colon Cancer
# Description: as §1
# CAKI-1 = test: NCI-60 cell line panel: CAKI-1; parameters: TGI: unit not given here; details: Renal Cancer
# Description: as §1
# LOX IMVI = test: NCI-60 cell line panel: LOX IMVI; details: Melanoma
# Description: as §1
# [1] = system: hepatocellular carcinoma cell lines; test: Screening against HCC cell lines
# Description: The target compounds were tested against hepatocellular carcinoma cell lines. Compounds 1j. 13a. 13b. 13c. […] The mean inhibition percentage values are illustrated in Table 9.
# Two HCC cell lines (Hep3B and HepG2) were used for screening the antiproliferative activity of the synthesized compounds. The cell lines were obtained from the European Collection of Cell Cultures (ECACC, UK) and maintained in Dulbecco's Modified Eagle Medium (DMEM: Sigma-Aldrich) supplemented with 10% fetal bovine serum (FBS) and 1% penicillin/streptomycin and incubated at 37° C. in a 5% CO2 air atmosphere. In addition, WI-38 normal cell line was used to investigate the safety of these compounds.
# MTT assay was conducted to calculate the IC50 of the compounds following the reported procedure . Briefly, the cells were seeded in 96-well tissue culture plates with a density of 5×10^4 cells/well and incubated overnight at 37° C. in a 5% CO2 air atmosphere. After that, cells were treated with the newly synthesized compounds or sorafenib as a positive control. DMSO was used as a negative control. After 48 h, the media were aspirated, and replaced with media containing 0.5 mg/mL of MTT tetrazolium dye (Sigma-Aldrich) for 2 h at 37° C. Finally, the media were removed and 200 μL of DMSO was added to solubilize the formazan crystals. Absorbance was then measured at 570 nm using Varioskan Flash multimode plate reader (Thermo Scientific, Massachusetts, USA).
# MDA-MB-231/ATCC = test: NCI-60 cell line panel: MDA-MB-231/ATCC; details: Breast Cancer
# Description: as §1
# NCI-H23 = test: NCI-60 cell line panel: NCI-H23; details: Non-Small Cell Lung Cancer
# Description: as §1
# T-47D = test: NCI-60 cell line panel: T-47D; details: Breast Cancer
# Description: as §1
# 786-0 = test: NCI-60 cell line panel: 786-0; details: Renal Cancer
# Description: as §1
# SK-MEL-5 = test: NCI-60 cell line panel: SK-MEL-5; details: Melanoma
# Description: as §1
# HCT-116 = test: NCI-60 cell line panel: HCT-116; details: Colon Cancer
# Description: as §1
# SNB-19 = test: NCI-60 cell line panel: SNB-19; details: CNS Cancer
# Description: as §1
# A549/ATCC = test: NCI-60 cell line panel: A549/ATCC; details: Non-Small Cell Lung Cancer
# Description: as §1
# SK-MEL-28 = test: NCI-60 cell line panel: SK-MEL-28; details: Melanoma
# Description: as §1
# [2] = total growth inhibition, in µM (unit assumed)
structure (smiles),measurement,setting,value
"CCN1CCN(c2ccc(NC(=O)Nc3ccc(-c4cc(C(=O)NC(C)C)c5ncccc5n4)cc3)cc2C(F)(F)F)CC1 [Compound 13f, 2-(4-(3-(4-(4-Ethylpiperazin-1-yl)-3-(trifluoromethyl)phenyl)ureido)phenyl)-N-isopropyl-1,5-naphthyridine-4-carboxamide]",pIC50,ACHN; Homo sapiens,5.99
same,TGI,ACHN; total growth inhibition,3470 nM
same,pIC50,NCI-H322M; Homo sapiens,5.73
same,TGI,NCI-H322M; total growth inhibition,7240 nM
same,pIC50,SK-MEL-2; Homo sapiens,5.32
same,TGI,SK-MEL-2; total growth inhibition,9.89
same,TGI,BT-549; total growth inhibition,9570 nM
same,pIC50,BT-549; Homo sapiens,5.32
same,pIC50,PC-3; Homo sapiens,6.12
same,TGI,PC-3; total growth inhibition,2100 nM
same,TGI,MDA-MB-468; total growth inhibition,1850 nM
same,pIC50,MDA-MB-468; Homo sapiens,6.11
same,pIC50,UACC-62; Homo sapiens,5.40
same,TGI,UACC-62; total growth inhibition,8280 nM
same,pIC50,SR; Homo sapiens,5.98
same,TGI,SR; total growth inhibition,12100 nM
same,pIC50,MOLT-4; Homo sapiens,5.95
same,TGI,MOLT-4; total growth inhibition,30.60
same,TGI,COLO 205; total growth inhibition,2.71
same,pIC50,COLO 205; Homo sapiens,6.03
same,pIC50,OVCAR-8; Homo sapiens,5.24
same,TGI,OVCAR-8; [2],17.5
same,pIC50,OVCAR-4; Homo sapiens,6.06
same,TGI,OVCAR-4; [2],2.45
same,pIC50,A498; Homo sapiens,5.29
same,TGI,A498; total growth inhibition,9700 nM
same,pIC50,HL-60(TB); Homo sapiens,5.97
same,TGI,HL-60(TB); total growth inhibition,5.89
same,pIC50,NCI-H460; Homo sapiens,6.21
same,TGI,NCI-H460; total growth inhibition,1180 nM
same,pIC50,EKVX; Homo sapiens,5.79
same,TGI,EKVX; [2],5.82
same,pIC50,SK-OV-3; Homo sapiens,5.27
same,TGI,SK-OV-3; total growth inhibition,1080 nM
same,pIC50,TK-10; Homo sapiens,5.87
same,TGI,TK-10; total growth inhibition,4870 nM
same,pIC50,UO-31; Homo sapiens,5.66
same,TGI,UO-31; total growth inhibition,6.81
same,TGI,KM12; total growth inhibition,2910 nM
same,pIC50,KM12; Homo sapiens,6.00
same,pIC50,CAKI-1; Homo sapiens,6.10
same,TGI,CAKI-1; total growth inhibition,2.08
same,pIC50,LOX IMVI; Homo sapiens,6.25
same,TGI,LOX IMVI; total growth inhibition,1050 nM
same,inhibition activity against hepatocellular carcinoma cell lines compared with sorafenib,[1],higher inhibition activity than sorafenib
same,TGI,MDA-MB-231/ATCC; total growth inhibition,1180 nM
same,pIC50,MDA-MB-231/ATCC; Homo sapiens,6.21
same,pIC50,NCI-H23; Homo sapiens,5.69
same,TGI,NCI-H23; total growth inhibition,7270 nM
same,TGI,T-47D; total growth inhibition,8740 nM
same,pIC50,"T-47D; Homo sapiens, T47D",5.71
same,pIC50,786-0; Homo sapiens,6.30
same,TGI,786-0; total growth inhibition,1030 nM
same,pIC50,SK-MEL-5; Homo sapiens,5.85
same,TGI,SK-MEL-5; total growth inhibition,5280 nM
same,TGI,HCT-116; total growth inhibition,1300 nM
same,pIC50,HCT-116; Homo sapiens,6.19
same,TGI,SNB-19; total growth inhibition,9120 nM
same,pIC50,SNB-19; Homo sapiens,5.37
same,pIC50,A549/ATCC; Homo sapiens,5.94
same,TGI,A549/ATCC; total growth inhibition,5770 nM
same,pIC50,SK-MEL-28; Homo sapiens,6.12
same,TGI,SK-MEL-28; total growth inhibition,1850 nM
